Laboratory results: ChEMBL document CHEMBL4610086, “N-Acylethanolamine Acid Amidase (NAAA): Structure, Function, and Inhibition” (J Med Chem, 2020)

Assays:
[1] = target: T1, N-acylethanolamine-hydrolyzing acid amidase (Homo sapiens, UniProt Q02083); experiment: Inhibition of NAAA (unknown origin)
T1 sequence (Q02083 whole entry): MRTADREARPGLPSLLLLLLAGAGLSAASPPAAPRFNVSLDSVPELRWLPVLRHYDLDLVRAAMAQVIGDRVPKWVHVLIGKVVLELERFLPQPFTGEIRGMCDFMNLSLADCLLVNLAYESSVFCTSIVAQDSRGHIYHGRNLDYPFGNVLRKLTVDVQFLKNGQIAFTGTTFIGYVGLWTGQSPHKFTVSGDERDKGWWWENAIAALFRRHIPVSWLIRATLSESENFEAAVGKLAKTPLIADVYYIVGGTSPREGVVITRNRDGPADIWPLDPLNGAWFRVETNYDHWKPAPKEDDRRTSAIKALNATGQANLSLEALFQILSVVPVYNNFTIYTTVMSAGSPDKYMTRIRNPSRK

[2] = Blood brain barrier permeability in human; format: ADME; details: read-out: BPR
[3] = target: T1, N-acylethanolamine-hydrolyzing acid amidase; experiment: Inhibition of human NAAA
[4] = target: T1, N-acylethanolamine-hydrolyzing acid amidase; experiment: Inhibition of human NAAA expressed in HEK293 cell membranes using [3H]-N-palmitoylethanolamine as substrate after 30 mins by liquid scintillation counting assay

**Q.** Which IC50 [1] does the source give for `O=C(CCc1ccc(-c2ccccc2)cc1)N1CCCC1` here?
**A.** 3.1 µM

**Q.** With `CCS(=O)(=O)c1ccccc1C(=O)N1CCN(c2nc3ccc(F)cc3s2)C[C@@H]1C` as the compound, how does the Kp [2] read?
**A.** 0.2

**Q.** Which IC50 [3] does the source give for `CCCCc1ccc(O[C@@H]2C[C@H]3CC[C@@H](C2)N3CS(=O)(=O)c2c(C)n[nH]c2C)cc1` here?
**A.** 0.023 µM

**Q.** For `CCCCCCCCCCCCCCCC(=O)OC1CCCC1` [CYCLOPENTYL PALMITATE], which IC50 [4] is on record?
**A.** > 30 µM
